Experimental data taken from article PMC8041284, “Tunable Methacrylamides for Covalent Ligand Directed Release Chemistry” (Journal of the American Chemical Society, 2021).
Like-named read-outs stand apart in the source and are kept apart here.

Biological target: BTK (Homo sapiens, UniProt Q06187)
[1] = 0.75 uM BTK, […] probe 3l, 15 min preincubation, 10 µM, inhibitor, BTK inhibition (%)
[2] = 0.75 uM BTK, […] probe 3l, 15 min preincubation; 10 µM; inhibitor

BTK, sequence (Q06187 402-655 limits assumed): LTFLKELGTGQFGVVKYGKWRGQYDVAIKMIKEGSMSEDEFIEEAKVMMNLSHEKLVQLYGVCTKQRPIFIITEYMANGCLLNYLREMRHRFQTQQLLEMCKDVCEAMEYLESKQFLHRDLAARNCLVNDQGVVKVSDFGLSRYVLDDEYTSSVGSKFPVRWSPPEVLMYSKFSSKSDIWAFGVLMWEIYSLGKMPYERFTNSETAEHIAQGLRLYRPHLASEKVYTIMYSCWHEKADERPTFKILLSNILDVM

| Structure (SMILES) | BTK inhibition (%) [1] | BTK inhibition (%) [2] | other results |
| --- | --- | --- | --- |
| CC(C(=O)O)c1cccc(Oc2ccccc2)c1 (stereo not drawn) [PCM-0214813] | 4.8% |  |  |
| O=C(O)C1C2CCC(O2)C1C(=O)O (stereo not drawn) [PCM-0215947] |  | -7.7% |  |
| C[C@H]1CC[C@@H]2N(C1)C[C@H]1[C@@H]3C[C@H]4[C@@H](C[C@H](O)[C@H]5C[C@@H](O)CC[C@@]54C)[C@@H]3CC[C@@H]1[C@]2(C)O [PCM-0216522] |  |  | BTK inhibition (%) (10 µM; inhibitor): -15.4% |
| COc1ccc2c(c1)c(CC(=O)O)c(C)n2C(=O)c1ccc(Cl)cc1 [PCM-0065532] | 5.5% |  |  |
| O=C(O[C@H]1C[N+]2(CCCOc3ccccc3)CCC1CC2)C(O)(c1cccs1)c1cccs1 [PCM-0214751] |  | -24.1% |  |
| Cc1cc(C)nc(NS(=O)(=O)c2ccc(N)cc2)n1 [PCM-0216008] | 11.7% |  |  |
| c1cc2c(cc1[C@H]1OC[C@H]3[C@@H]1CO[C@H]3c1ccc3c(c1)OCO3)OCO2 [PCM-0216178] |  | 29.3% |  |
| C[C@H](O)[C@H](O)[C@@H](O)[C@@H](O)C=O [PCM-0094862] | -7.8% |  |  |
| CC(=O)OC(C)(C)/C=C/C(=O)[C@](C)(O)[C@H]1[C@H](O)C[C@@]2(C)[C@@H]3CC=C4[C@@H](C[C@H](O)C(=O)C4(C)C)[C@]3(C)C(=O)C[C@]12C [PCM-0214542] |  |  | BTK inhibition (%) (10 µM; inhibitor): -10% |
| COc1ccc(C[C@@H](C)NC[C@H](O)c2ccc(O)c(NC=O)c2)cc1 [PCM-0216637] | 6.9% |  |  |
| Cc1c(O)c(=O)ccn1C [PCM-0085974] | -30.4% |  |  |
| CC1=C(O)C(=O)C=C2C1=CC=C1[C@@]2(C)CC[C@@]2(C)[C@@H]3C[C@](C)(C(=O)O)CC[C@]3(C)CC[C@]12C [PCM-0214611] |  | 67.7% |  |
| CO[C@H]1/C=C/O[C@@]2(C)Oc3c(C)c(O)c4c(O)c(c(/C=N/N5CCN(C)CC5)c(O)c4c3C2=O)NC(=O)/C(C)=C\C=C\[C@H](C)[C@H](O)[C@@H](C)[C@@H](O)[C@@H](C)[C@H](OC(C)=O)[C@@H]1C [PCM-0086069] |  | 32.7% |  |
| CCN(Cc1ccc(Cl)nc1)/C(=C/[N+](=O)[O-])NC [PCM-0214807] |  | 7% |  |
| CN[C@H]1[C@H](O)[C@H](O[C@@H]2[C@@H](O)[C@H](O[C@H]3O[C@H](C(C)O)[C@@H](O)[C@H](O)[C@H]3N)[C@@H](N)C[C@H]2N)OC[C@@]1(C)O (stereo partly drawn) [PCM-0215175] |  |  | BTK inhibition (%) (10 µM; inhibitor): 6% |
| C[C@@H]1O[C@@H]1P(=O)(O)O [PCM-0215255] | -21% |  |  |
| CC(C)C1=CC(=O)[C@@](C)([C@H]2[C@H](O)C[C@@]3(C)[C@@H]4CC=C5[C@@H](CC[C@@H](O[C@@H]6OC[C@@H](O)[C@H](O)[C@H]6O[C@@H]6O[C@@H](C)[C@H](O)[C@@H](O)[C@H]6O)C5(C)C)[C@]4(C)C(=O)C[C@]23C)O1 [PCM-0216419] |  |  | BTK inhibition (%) (10 µM; inhibitor): 2.3% |
| CC[N+](C)(CC)CCOC(=O)C(O)(c1ccccc1)c1ccccc1 [PCM-0214829] |  | -19.5% |  |
| CN1C(=O)[C@@]23C[C@]4([C@]56C[C@@]78SS[C@@](CO)(C(=O)N7[C@H]5Nc5ccccc56)N(C)C8=O)c5ccccc5N[C@@H]4N2C(=O)[C@]1(CO)SS3 [PCM-0215602] |  |  | BTK inhibition (%) (10 µM; inhibitor): 5.4% |
| CCC(=O)NS(=O)(=O)c1ccc(-c2c(-c3ccccc3)noc2C)cc1 [PCM-0216557] | 2.3% |  |  |
| CN(C)C(=O)Oc1cccc([N+](C)(C)C)c1 [PCM-0064762] |  | -7.7% |  |
| CN1C2CC(OC(=O)C(CO)c3ccccc3)CC1C(O)C2 (stereo not drawn) [PCM-0216645] |  | 6.9% |  |

| Structure (SMILES) | BTK inhibition (%) [1] | BTK inhibition (%) [2] | other results |
| --- | --- | --- | --- |
| CC(C)[N+]1(C)[C@@H]2CC[C@H]1CC(OC(=O)C(CO)c1ccccc1)C2 (stereo partly drawn) [PCM-0214646] |  | -24.9% |  |
| CN1C2=C3N=c4ccccc4=C3CCN2C(=O)c2ccccc21 [PCM-0215051] | 4.7% |  |  |
| Cc1cc(C)nc(NS(=O)(=O)c2ccc(N)cc2)n1 [PCM-0086513] | -23.3% |  |  |
| Nc1ccc(S(=O)(=O)Nc2ncccn2)cc1 [PCM-0085802] | -14% |  |  |
| COc1cc([C@H]2OC[C@@H]3[C@@H]2CO[C@H]3c2cc(OC)c(O[C@@H]3O[C@H](CO)[C@@H](O)[C@H](O)[C@H]3O)c(OC)c2)cc(OC)c1O[C@@H]1O[C@H](CO)[C@@H](O)[C@H](O)[C@H]1O [PCM-0216398] |  | -10% |  |
| COc1ccc(C(CN(C)C)C2(O)CCCCC2)cc1 (stereo not drawn) [PCM-0065195] |  | 6.2% |  |
| O=c1ccc2c(O)c3ccoc3cc2o1 [PCM-0216332] |  |  | BTK inhibition (%) (10 µM; inhibitor): -11.6% |
| O=C/C=C/c1ccccc1 [PCM-0215920] |  | 3.1% |  |
| c1cc2c(cc1[C@H]1OC[C@H]3[C@@H]1CO[C@@H]3c1ccc3c(c1)OCO3)OCO2 [PCM-0094427] |  | -24.1% |  |
| CC[C@H]1OC(=O)[C@H](C)[C@@H](O[C@H]2C[C@@](C)(OC)[C@@H](O)[C@H](C)O2)[C@H](C)[C@@H](O[C@@H]2O[C@H](C)C[C@H](N(C)C)[C@H]2O)[C@](C)(O)C[C@@H](C)CN(C)[C@H](C)[C@@H](O)[C@]1(C)O [PCM-0214754] | 1.6% |  |  |
| C[C@@H]1CC[C@@]2(OC1)O[C@H]1C[C@H]3[C@@H]4CC=C5C[C@@H](O[C@@H]6O[C@H](CO)[C@@H](O[C@@H]7O[C@@H](C)[C@H](O)[C@@H](O)[C@H]7O)[C@H](O)[C@H]6O[C@@H]6O[C@@H](C)[C@H](O)[C@@H](O)[C@H]6O)CC[C@]5(C)[C@H]4CC[C@]3(C)[C@H]1[C@@H]2C [PCM-0214660] |  | 38.1% |  |
| CC1=C[C@]23C(=O)[C@@H](C=C(CO)[C@@H](O)[C@]2(O)[C@H]1O)[C@H]1[C@@H](C[C@H]3C)C1(C)C [PCM-0216393] |  | -3.1% |  |
| CC(C)OC(=O)[C@H](C)N[P@](=O)(CO[C@H](C)Cn1cnc2c(N)ncnc21)Oc1ccccc1 [PCM-0215482] |  | -3.1% |  |
| CC[C@@]1(O)C(=O)OCc2c1cc1n(c2=O)Cc2cc3cc(O)ccc3nc2-1 [PCM-0094873] |  | -14% |  |
| Cc1ccccc1C(=O)Nc1ccc(C(=O)N2CCCC(N(C)C)c3ccccc32)cc1 (stereo not drawn) [PCM-0095424] | 70% |  |  |
| C[C@H](CCC(=O)NCCS(=O)(=O)O)[C@H]1CC[C@H]2[C@@H]3[C@@H](O)C[C@@H]4C[C@H](O)CC[C@]4(C)[C@H]3CC[C@]12C [PCM-0214942] | 4.7% |  |  |
| Nc1nc2[nH]cc(CCc3ccc(C(=O)N[C@@H](CCC(=O)O)C(=O)O)cc3)c2c(=O)[nH]1 [PCM-0215446] | -10.2% |  |  |
| CCN(C)C(=O)Oc1cccc([C@H](C)N(C)C)c1 [PCM-0086345] |  | 1.6% |  |
| CCNc1nc(Cl)nc(NC(C)C)n1 [PCM-0215964] |  | 3.9% |  |
| CN1CC=C(c2ccccc2)CC1 [PCM-0214851] |  |  | BTK inhibition (%) (10 µM; inhibitor): 3.1% |
| CO/N=C(\C(=O)N[C@@H]1C(=O)N2C(C(=O)O)=C(CSC(=O)c3ccco3)CS[C@H]12)c1csc(N)n1 [PCM-0214692] | 0% |  |  |
| C/C(=C\C(=O)OCCCCCCCCC(=O)O)C[C@@H]1OC[C@H](C[C@@H]2O[C@H]2[C@@H](C)[C@H](C)O)[C@@H](O)[C@H]1O [PCM-0215997] | 13.9% |  |  |

| Structure (SMILES) | BTK inhibition (%) [1] | BTK inhibition (%) [2] | other results |
| --- | --- | --- | --- |
| O=c1ccc2cc(O[C@@H]3O[C@H](CO)[C@@H](O)[C@H](O)[C@H]3O)c(O)cc2o1 [PCM-0091361] |  | 0% |  |
| Cc1cc(C(C#N)c2ccc(Cl)cc2)c(Cl)cc1NC(=O)c1cc(I)cc(I)c1O (stereo not drawn) [PCM-0086145] |  | 20.2% |  |
| CO/N=C(\C(=O)N[C@@H]1C(=O)N2C(C(=O)O)=C(CSC(=O)c3ccco3)CS[C@H]12)c1csc(N)n1 [PCM-0216235] | 0.8% |  |  |
| COC1=C[C@@H]2[C@@H]3Cc4ccc(OC)c(O)c4[C@]2(CCN3C)CC1=O [PCM-0090951] |  |  | BTK inhibition (%) (10 µM, inhibitor): 14.8% |
| N#C[C@H](O[C@@H]1O[C@H](CO[C@@H]2O[C@H](CO)[C@@H](O)[C@H](O)[C@H]2O)[C@@H](O)[C@H](O)[C@H]1O)c1ccccc1 [PCM-0094813] |  |  | BTK inhibition (%) (10 µM; inhibitor): -12.5% |
| Cc1c(O)c(=O)ccn1C [PCM-0090746] | -11.9% |  |  |
| CC[C@H]1OC(=O)[C@H](C)[C@@H](O[C@H]2C[C@@](C)(OC)[C@@H](O)[C@H](C)O2)[C@H](C)[C@@H](O[C@@H]2O[C@H](C)C[C@H](N(C)C)[C@H]2O)[C@](C)(O)C[C@@H](C)C(=O)[C@H](C)[C@@H](O)[C@]1(C)O [PCM-0214693] | 5.4% |  |  |
| COc1cc(NS(=O)(=O)c2ccc(N)cc2)nc(OC)n1 [PCM-0086362] | -7.8% |  |  |
| COc1ccc2[nH]c([S@@+]([O-])Cc3ncc(C)c(OC)c3C)nc2c1 [PCM-0214815] | -10.9% |  |  |
| CC(=O)O[C@H]1C[C@@H]2CC[C@@H]3[C@H](CC[C@@]4(C)[C@H]3C[C@H]([N+]3(C)CCCCC3)[C@@H]4OC(C)=O)[C@@]2(C)C[C@@H]1N1CCCCC1 [PCM-0214623] |  | -6.2% |  |
| O=c1ccc2cc3ccoc3c(O)c2o1 [PCM-0216446] |  | -6.2% |  |
| CC(C)c1ccc(C=O)cc1 [PCM-0216001] |  | -18.5% |  |
| CCCCC(C#N)(Cn1cncn1)c1ccc(Cl)cc1 (stereo not drawn) [PCM-0216598] |  | 3.1% |  |
| N[C@@H](C=O)[C@@H](O)[C@H](O)[C@H](O)CO [PCM-0215073] | -2.8% |  |  |
| COc1cc(NS(=O)(=O)c2ccc(N)cc2)nc(OC)n1 [PCM-0216005] | -11.6% |  |  |
| C[C@H]1CCCC(=O)CCC/C=C/c2cc(O)cc(O)c2C(=O)O1 [PCM-0216639] |  |  | BTK inhibition (%) (10 µM; inhibitor): 10.8% |
| NC(=O)c1ncn([C@@H]2O[C@H](CO)[C@@H](O)[C@H]2O)n1 [PCM-0065438] |  | -11.7% |  |
| CN1[C@@H]2CC(OC(=O)[C@H](CO)c3ccccc3)C[C@H]1[C@@H]1O[C@@H]12 (stereo partly drawn) [PCM-0086586] |  | -3.1% |  |
| O=C(/C=C/c1ccccc1)OC[C@H]1O[C@@H](O[C@@H]2OC=C[C@H]3[C@H](O)[C@@H]4O[C@]4(CO)[C@@H]23)[C@H](O)[C@@H](O)[C@@H]1O [PCM-0214975] |  | -1.6% |  |
| Cn1c(CCCC(=O)O)nc2cc(N(CCCl)CCCl)ccc21 [PCM-0065281] |  | -3.9% |  |
| O=C(O)O [PCM-0216262] | -6.2% |  |  |
| COC1=C[C@@H]2[C@@H]3Cc4ccc(OC)c(O)c4[C@]2(CCN3C)CC1=O [PCM-0214970] |  |  | BTK inhibition (%) (10 µM, inhibitor): 0% |
